This passage reports IC50 results from ChEMBL document CHEMBL1128973, “Potent matrix metalloproteinase inhibitors: Amino-carboxylate compounds containing modifications of the P1 residue” (Bioorg Med Chem Lett, 1996).

Where only a bound is given, the exact number is not on record here.

This assay deals with Stromelysin-1 (Homo sapiens, UniProt P08254). Nature of the assay: Inhibitory activity against Matrix metalloprotease-3.
Chain of Stromelysin-1 (P08254 whole entry): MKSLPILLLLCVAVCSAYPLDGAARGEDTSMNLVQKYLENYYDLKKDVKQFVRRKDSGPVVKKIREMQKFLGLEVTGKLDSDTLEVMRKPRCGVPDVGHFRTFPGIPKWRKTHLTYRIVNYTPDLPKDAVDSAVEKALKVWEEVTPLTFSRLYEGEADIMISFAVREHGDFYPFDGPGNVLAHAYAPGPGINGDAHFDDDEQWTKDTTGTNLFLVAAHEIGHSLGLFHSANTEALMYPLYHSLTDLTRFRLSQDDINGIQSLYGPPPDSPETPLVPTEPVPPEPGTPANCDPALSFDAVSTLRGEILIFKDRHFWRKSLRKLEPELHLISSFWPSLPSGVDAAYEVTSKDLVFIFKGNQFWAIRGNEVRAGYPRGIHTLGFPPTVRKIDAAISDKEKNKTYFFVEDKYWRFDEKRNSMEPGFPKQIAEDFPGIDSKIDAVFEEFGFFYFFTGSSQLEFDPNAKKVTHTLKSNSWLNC
`CNC(=O)[C@H](Cc1ccccc1)NC(=O)[C@H](CCc1ccccc1)N[C@@H](CCN1C(=O)NC2(CCCC2)C1=O)C(=O)O`: the IC50 (usually the concentration that gives 50% inhibition) amounted to 1.9 µM.

As to `COc1ccc(S(=O)(=O)NCC[C@H](N[C@@H](CCc2ccccc2)C(=O)N2CCOCC2)C(=O)O)cc1`, the IC50 is above 20 µM.

As to `CNC(=O)c1ccc(CNC(=O)[C@H](CCc2ccccc2)N[C@@H](CCNS(=O)(=O)c2ccc(OC)cc2)C(=O)O)cc1`, the IC50 turned out to be 18 µM.

`CCOC(=O)N1CCC(NC(=O)[C@H](CCc2ccccc2)N[C@@H](CCNS(=O)(=O)c2ccc(OC)cc2)C(=O)O)CC1` displayed an IC50 above 20 µM.

In the case of `CNC(=O)[C@H](Cc1ccccc1)NC(=O)[C@H](CCc1ccccc1)N[C@@H](CCNS(=O)(=O)c1ccc(C)cc1)C(=O)O`, the IC50 was found to be 0.12 µM.

`CCOC(=O)N1CCN(C(=O)[C@H](CCc2ccccc2)N[C@@H](CCNS(=O)(=O)c2ccc(OC)cc2)C(=O)O)CC1` displayed an IC50 above 20 µM.

In turn, `COc1ccc(S(=O)(=O)NCC[C@H](N[C@@H](CCc2ccccc2)C(=O)NCc2ccc(C(=O)O)cc2)C(=O)O)cc1` came in with an IC50 of 14 µM.

`COc1ccc(S(=O)(=O)NCC[C@H](N[C@@H](CCc2ccccc2)C(=O)N[C@@H](CC(C)C)C(=O)NOCc2ccccc2)C(=O)O)cc1` displayed a half-inhibitory concentration (IC50) of 0.55 µM.

`CNC(=O)[C@H](Cc1ccccc1)NC(=O)[C@H](CCc1ccccc1)N[C@@H](CCNC(=O)c1cc2ccccc2[nH]1)C(=O)O` returned an IC50 of 1.1 µM.

For the compound `COc1ccc(S(=O)(=O)NCC[C@H](N[C@@H](CCc2ccccc2)C(=O)N2CCC(O)CC2)C(=O)O)cc1`, the IC50 was above 20 µM.

Compound `CNC(=O)[C@H](Cc1ccccc1)NC(=O)[C@H](CCc1ccccc1)N[C@@H](CCNS(=O)(=O)c1ccc2ccccc2c1)C(=O)O` displayed a half-inhibitory concentration (IC50) of 0.51 µM.

`COc1ccc(S(=O)(=O)NCC[C@H](N[C@@H](CCc2ccccc2)C(=O)N2CCN(S(C)(=O)=O)CC2)C(=O)O)cc1` showed an IC50 above 20 µM.

The compound `Cc1ccc(S(=O)(=O)NCC[C@H](N[C@@H](CCc2ccccc2)C(=O)N[C@@H](CC(C)C)C(=O)Nc2ccccc2)C(=O)O)cc1` came in with an IC50 of 0.05 µM.

Regarding `COc1ccc(S(=O)(=O)NCC[C@H](N[C@@H](CCc2ccccc2)C(=O)N[C@@H](CC(C)C)C(=O)Nc2ccccc2)C(=O)O)cc1`, the IC50 was determined as 0.05 µM.
